{"source": "patent US20080221132A1", "about": "“Multi-Functional Small Molecules as Anti-Proliferative Agents” (priority 2006, published 2008)", "key": {"Lung_H358": {"system": "Lung_H358", "assay": "Cell proliferation assay (ATPlite), H358", "format": "cell-based", "conditions": "Homo sapiens, NCI-H358; TABLE C; 72 hours, 0.5% fetal bovine serum, ATP content; read-out: IC50 grading, Lung_H358", "protocol": "(§1) A representative number of compounds were assayed against several different cell lines using the cell proliferation assay:\n(§2) Cell Proliferation Assay:\n(§3) Cancer cell lines were plated at 5,000 to 10,000 per well in 96-well flatted bottomed plates with various concentration of compounds. The cells were incubated with compounds for 72 hours in the presence of 0.5% of fetal bovine serum. Growth inhibition was accessed by adenosine triphosphate (ATP) content assay using Perkin Elmer ATPlite kit. ATPlite is an ATP monitoring system based on firefly luciferase. Briefly, 25 μl of mammalian cell lysis solution was added to 50 μl of phenol red-free culture medium per well to lyse the cells and stabilize the ATP. 25 μl of substrate solution was then added to the well and subsequently the luminescence was measured."}, "FLT-3 Kinase": {"molecular_target": "FLT-3 Kinase (Homo sapiens, UniProt P36888)", "sequence (P36888 27-993)": "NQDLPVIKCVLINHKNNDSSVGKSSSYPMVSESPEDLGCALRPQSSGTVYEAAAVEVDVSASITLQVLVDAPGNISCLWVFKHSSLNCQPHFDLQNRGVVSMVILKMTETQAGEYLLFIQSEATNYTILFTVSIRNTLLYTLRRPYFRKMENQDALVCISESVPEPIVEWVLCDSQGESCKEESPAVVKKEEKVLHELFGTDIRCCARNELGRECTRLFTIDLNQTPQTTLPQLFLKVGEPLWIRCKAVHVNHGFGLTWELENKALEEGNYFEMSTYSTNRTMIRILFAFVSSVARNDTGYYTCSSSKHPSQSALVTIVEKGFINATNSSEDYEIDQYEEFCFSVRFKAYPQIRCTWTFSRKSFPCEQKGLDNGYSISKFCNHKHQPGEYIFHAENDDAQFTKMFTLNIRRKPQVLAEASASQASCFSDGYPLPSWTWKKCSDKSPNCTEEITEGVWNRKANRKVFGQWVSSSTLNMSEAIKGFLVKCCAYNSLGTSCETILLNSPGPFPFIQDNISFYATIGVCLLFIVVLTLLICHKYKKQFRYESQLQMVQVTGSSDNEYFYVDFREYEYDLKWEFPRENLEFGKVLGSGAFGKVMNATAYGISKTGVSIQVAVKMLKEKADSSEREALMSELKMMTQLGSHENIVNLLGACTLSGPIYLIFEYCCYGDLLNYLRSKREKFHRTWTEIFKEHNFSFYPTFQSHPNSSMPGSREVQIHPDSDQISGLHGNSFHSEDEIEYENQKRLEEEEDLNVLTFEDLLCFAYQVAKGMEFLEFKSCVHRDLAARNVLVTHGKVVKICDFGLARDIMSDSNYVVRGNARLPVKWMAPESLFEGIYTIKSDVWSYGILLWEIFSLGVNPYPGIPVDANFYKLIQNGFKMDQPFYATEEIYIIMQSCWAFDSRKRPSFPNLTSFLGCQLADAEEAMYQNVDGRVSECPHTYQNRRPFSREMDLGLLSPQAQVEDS", "assay": "Kinase panel (TABLE F), FLT-3 Kinase", "format": "biochemical"}, "Pancreas_BxPC3": {"system": "Pancreas_BxPC3", "assay": "Cell proliferation assay (ATPlite), BxPC3", "format": "cell-based", "conditions": "Homo sapiens, BXPC-3; TABLE C; 72 hours, 0.5% fetal bovine serum, ATP content; read-out: IC50 grading, Pancreas_BxPC3", "protocol": "as §1, §2, §3"}, "[1]": {"conditions": "male, CD-1, mouse, in vivo, iv, 9 day", "procedure": "Single dosing MTD in mice • a. CD-1 mice, male, 24-26 gram • b. Dosing at 0, 50, 100, 200, 400 mg/kg, iv infusion 2 min • c. 8 mice per group\n(§4) Stock solution is diluted with 30% CAPTISOL before use."}, "Pancreas_HPAC": {"system": "Pancreas_HPAC", "assay": "Cell proliferation assay (ATPlite), HPAC", "format": "cell-based", "conditions": "Homo sapiens, TABLE C, 72 hours, 0.5% fetal bovine serum, ATP content, read-out: IC50 grading, Pancreas_HPAC", "protocol": "as §1, §2, §3"}, "VEGFR2 Kinase": {"molecular_target": "VEGFR2 Kinase (Homo sapiens, UniProt P35968)", "sequence (P35968 20-1356)": "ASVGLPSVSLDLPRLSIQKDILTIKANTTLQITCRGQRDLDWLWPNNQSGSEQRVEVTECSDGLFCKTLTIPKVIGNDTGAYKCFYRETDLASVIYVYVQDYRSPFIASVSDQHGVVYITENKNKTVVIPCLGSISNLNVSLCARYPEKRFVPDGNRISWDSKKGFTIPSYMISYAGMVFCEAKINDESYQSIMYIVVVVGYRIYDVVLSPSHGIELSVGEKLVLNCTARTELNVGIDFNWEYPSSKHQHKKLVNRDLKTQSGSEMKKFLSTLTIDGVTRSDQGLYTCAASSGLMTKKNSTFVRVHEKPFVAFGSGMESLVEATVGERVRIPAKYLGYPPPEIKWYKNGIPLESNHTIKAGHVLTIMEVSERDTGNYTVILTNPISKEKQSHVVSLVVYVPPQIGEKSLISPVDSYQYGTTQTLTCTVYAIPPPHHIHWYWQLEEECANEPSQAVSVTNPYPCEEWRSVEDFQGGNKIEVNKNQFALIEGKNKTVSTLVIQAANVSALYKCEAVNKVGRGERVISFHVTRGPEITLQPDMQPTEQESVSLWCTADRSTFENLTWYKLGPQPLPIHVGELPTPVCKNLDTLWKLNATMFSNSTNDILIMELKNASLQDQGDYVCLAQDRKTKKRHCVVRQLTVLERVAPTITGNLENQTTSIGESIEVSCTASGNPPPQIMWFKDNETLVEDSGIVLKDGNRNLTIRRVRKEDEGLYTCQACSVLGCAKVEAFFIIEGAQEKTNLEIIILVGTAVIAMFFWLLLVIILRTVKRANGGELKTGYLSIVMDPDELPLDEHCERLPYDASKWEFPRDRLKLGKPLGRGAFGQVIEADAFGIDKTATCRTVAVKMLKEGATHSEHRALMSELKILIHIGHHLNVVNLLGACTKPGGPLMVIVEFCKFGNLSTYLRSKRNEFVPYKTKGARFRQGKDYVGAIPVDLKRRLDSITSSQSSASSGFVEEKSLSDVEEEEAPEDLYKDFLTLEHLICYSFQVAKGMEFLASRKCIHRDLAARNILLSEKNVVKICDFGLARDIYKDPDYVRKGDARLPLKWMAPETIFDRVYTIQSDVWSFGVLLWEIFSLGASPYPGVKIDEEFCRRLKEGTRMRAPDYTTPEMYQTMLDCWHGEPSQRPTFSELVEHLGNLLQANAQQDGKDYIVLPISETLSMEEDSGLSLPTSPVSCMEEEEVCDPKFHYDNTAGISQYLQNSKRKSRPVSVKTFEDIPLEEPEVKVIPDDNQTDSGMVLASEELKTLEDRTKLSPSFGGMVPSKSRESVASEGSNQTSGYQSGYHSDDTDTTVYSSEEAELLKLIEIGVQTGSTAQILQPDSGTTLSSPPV", "assay": "Kinase panel (TABLE F), VEGFR2 Kinase", "format": "biochemical"}, "[2]": {"conditions": "male, CD-1, mouse, in vivo, ip, 7 days", "procedure": "7-day-multiple dosing MTD in mice • a. CD-1 mice, male, 24-26 gram • b. Dosing at 0, 50, 100, 200 mg/kg/d ip • c. 6 mice per group • d. Blood and organs will be collected 2 hr after last dosing on Day 7 for hematology\nas §4"}, "Pancreas_CFPAC": {"system": "Pancreas_CFPAC", "assay": "Cell proliferation assay (ATPlite), CFPAC", "format": "cell-based", "conditions": "TABLE C; 72 hours, 0.5% fetal bovine serum, ATP content; read-out: IC50 grading, Pancreas_CFPAC", "protocol": "as §1, §2, §3"}, "Pancreas_Capan1": {"system": "Pancreas_Capan1", "assay": "Cell proliferation assay (ATPlite), Capan1", "format": "cell-based", "conditions": "Homo sapiens, CAPAN-1; TABLE C; 72 hours, 0.5% fetal bovine serum, ATP content; read-out: IC50 grading, Pancreas_Capan1", "protocol": "as §1, §2, §3"}, "[3]": {"system": "Breast_MDAMB468 (MDA-MB-468, breast adenocarcinoma)", "assay": "Cell proliferation assay (ATPlite), MDA-MB-468", "format": "cell-based", "conditions": "Homo sapiens, TABLE C, 72 hours, 0.5% fetal bovine serum, ATP content, read-out: IC50 grading, Breast_MDAMB468", "protocol": "as §1, §2\nas §3, with “The cells were incubated with compounds for 72 hours in the presence of 0.5% of fetal bovine serum.” left out"}, "[4]": {"system": "Epidermoid_A431 (A431, epidermoid carcinoma)", "assay": "Cell proliferation assay (ATPlite), A431", "format": "cell-based", "conditions": "Homo sapiens, A-431", "protocol": "as §1, §2\nas §3, with “The cells were incubated with compounds for 72 hours in the presence of 0.5% of fetal bovine serum.” left out"}, "Lung_H1975": {"system": "Lung_H1975", "assay": "Cell proliferation assay (ATPlite), H1975", "format": "cell-based", "conditions": "Homo sapiens, NCI-H1975; TABLE C; 72 hours, 0.5% fetal bovine serum, ATP content; read-out: IC50 grading, Lung_H1975", "protocol": "as §1, §2, §3"}, "Lck Kinase": {"molecular_target": "Lck Kinase (Homo sapiens, UniProt P06239)", "sequence (P06239 whole entry)": "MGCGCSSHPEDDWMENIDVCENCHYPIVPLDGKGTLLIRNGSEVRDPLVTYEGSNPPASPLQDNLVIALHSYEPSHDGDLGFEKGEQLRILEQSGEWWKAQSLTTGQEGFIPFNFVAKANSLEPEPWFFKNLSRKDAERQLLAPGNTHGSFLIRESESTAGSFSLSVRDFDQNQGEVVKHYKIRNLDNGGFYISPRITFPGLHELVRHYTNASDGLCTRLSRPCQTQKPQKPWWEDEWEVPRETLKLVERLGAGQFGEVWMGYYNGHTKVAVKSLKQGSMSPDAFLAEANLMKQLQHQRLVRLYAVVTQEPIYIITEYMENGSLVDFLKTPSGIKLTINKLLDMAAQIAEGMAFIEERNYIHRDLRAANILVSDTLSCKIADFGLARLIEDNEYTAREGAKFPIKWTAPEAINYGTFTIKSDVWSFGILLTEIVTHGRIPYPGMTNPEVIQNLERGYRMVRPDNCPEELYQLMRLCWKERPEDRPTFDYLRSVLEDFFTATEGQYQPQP", "assay": "Kinase panel (TABLE F), Lck Kinase", "format": "biochemical"}, "Lung_H2122": {"system": "Lung_H2122", "assay": "Cell proliferation assay (ATPlite), H2122", "format": "cell-based", "conditions": "Homo sapiens, NCI-H2122; TABLE C; 72 hours, 0.5% fetal bovine serum, ATP content; read-out: IC50 grading, Lung_H2122", "protocol": "as §1, §2, §3"}, "Abl Kinase": {"molecular_target": "Abl Kinase (Homo sapiens, UniProt P00519)", "sequence (P00519 whole entry)": "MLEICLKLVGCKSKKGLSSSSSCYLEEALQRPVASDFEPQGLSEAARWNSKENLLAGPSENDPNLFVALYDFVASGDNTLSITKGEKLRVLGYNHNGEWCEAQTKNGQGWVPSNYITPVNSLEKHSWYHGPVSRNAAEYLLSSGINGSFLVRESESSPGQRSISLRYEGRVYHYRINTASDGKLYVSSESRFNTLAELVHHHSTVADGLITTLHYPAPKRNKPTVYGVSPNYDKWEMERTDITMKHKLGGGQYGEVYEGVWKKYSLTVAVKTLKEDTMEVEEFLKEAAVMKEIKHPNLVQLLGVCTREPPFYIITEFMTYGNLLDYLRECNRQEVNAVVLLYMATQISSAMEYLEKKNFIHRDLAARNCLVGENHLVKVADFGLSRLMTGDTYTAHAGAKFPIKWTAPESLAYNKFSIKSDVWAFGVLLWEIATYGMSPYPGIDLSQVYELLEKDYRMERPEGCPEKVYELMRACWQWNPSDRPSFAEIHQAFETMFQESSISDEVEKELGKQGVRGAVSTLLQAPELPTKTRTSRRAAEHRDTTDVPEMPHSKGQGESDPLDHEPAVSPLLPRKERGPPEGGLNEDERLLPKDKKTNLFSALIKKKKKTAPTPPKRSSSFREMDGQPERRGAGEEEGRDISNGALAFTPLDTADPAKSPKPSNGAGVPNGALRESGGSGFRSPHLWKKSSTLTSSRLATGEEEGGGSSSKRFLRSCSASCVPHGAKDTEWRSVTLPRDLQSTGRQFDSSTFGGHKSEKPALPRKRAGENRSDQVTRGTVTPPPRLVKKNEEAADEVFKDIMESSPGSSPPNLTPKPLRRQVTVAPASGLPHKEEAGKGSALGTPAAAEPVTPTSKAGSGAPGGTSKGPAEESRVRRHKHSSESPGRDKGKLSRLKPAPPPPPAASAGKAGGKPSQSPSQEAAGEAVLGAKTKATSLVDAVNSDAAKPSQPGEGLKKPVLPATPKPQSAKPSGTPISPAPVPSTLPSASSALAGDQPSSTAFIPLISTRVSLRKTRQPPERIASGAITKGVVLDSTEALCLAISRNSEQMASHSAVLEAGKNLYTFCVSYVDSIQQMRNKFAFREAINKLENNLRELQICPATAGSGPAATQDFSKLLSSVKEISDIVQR", "assay": "Kinase panel (TABLE F), Abl Kinase", "format": "biochemical"}, "Pancreas_MiaPaCa2": {"system": "Pancreas_MiaPaCa2", "assay": "Cell proliferation assay (ATPlite), MiaPaCa2", "format": "cell-based", "conditions": "Homo sapiens, MIA PaCa-2; TABLE C; 72 hours, 0.5% fetal bovine serum, ATP content; read-out: IC50 grading, Pancreas_MiaPaCa2", "protocol": "as §1, §2, §3"}, "in vivo": {"assay": "in vivo", "conditions": "male, CD-1, mouse, ip; for AUC: AUC (h * ng/ml)", "protocol": "Drug Preparation and Administration.\nBlood and tissue Sample Collection.\nPlasma Sample Extraction. Plasma samples were prepared by protein precipitation. An internal standard was added into plasma samples. […] The supernatant was then injected onto LC/MS/MS.\nSamples were compared to standards made in plasma. These standards were prepared by serial dilution.\nTissue Sample Extraction. […] Tissues were homogenized in 0.8 ml water. An internal standard was added into the tissue homogenates.\nLC/MS/MS Analytical Methods.\nLC Conditions are shown below:"}, "[5]": {"system": "Breast_SkBr3 (SKBr3, breast carcinoma)", "assay": "Cell proliferation assay (ATPlite), SkBr3", "format": "cell-based", "conditions": "Homo sapiens, SK-BR-3", "protocol": "as §1, §2\nas §3, with “The cells were incubated with compounds for 72 hours in the presence of 0.5% of fetal bovine serum.” left out"}, "Pancreas_PANC1": {"system": "Pancreas_PANC1", "assay": "Cell proliferation assay (ATPlite), PANC1", "format": "cell-based", "conditions": "Homo sapiens, PANC-1; TABLE C; 72 hours, 0.5% fetal bovine serum, ATP content; read-out: IC50 grading, Pancreas_PANC1", "protocol": "as §1, §2, §3"}, "Ret Kinase": {"molecular_target": "Ret Kinase (Homo sapiens, UniProt P07949)", "sequence (P07949 29-1114)": "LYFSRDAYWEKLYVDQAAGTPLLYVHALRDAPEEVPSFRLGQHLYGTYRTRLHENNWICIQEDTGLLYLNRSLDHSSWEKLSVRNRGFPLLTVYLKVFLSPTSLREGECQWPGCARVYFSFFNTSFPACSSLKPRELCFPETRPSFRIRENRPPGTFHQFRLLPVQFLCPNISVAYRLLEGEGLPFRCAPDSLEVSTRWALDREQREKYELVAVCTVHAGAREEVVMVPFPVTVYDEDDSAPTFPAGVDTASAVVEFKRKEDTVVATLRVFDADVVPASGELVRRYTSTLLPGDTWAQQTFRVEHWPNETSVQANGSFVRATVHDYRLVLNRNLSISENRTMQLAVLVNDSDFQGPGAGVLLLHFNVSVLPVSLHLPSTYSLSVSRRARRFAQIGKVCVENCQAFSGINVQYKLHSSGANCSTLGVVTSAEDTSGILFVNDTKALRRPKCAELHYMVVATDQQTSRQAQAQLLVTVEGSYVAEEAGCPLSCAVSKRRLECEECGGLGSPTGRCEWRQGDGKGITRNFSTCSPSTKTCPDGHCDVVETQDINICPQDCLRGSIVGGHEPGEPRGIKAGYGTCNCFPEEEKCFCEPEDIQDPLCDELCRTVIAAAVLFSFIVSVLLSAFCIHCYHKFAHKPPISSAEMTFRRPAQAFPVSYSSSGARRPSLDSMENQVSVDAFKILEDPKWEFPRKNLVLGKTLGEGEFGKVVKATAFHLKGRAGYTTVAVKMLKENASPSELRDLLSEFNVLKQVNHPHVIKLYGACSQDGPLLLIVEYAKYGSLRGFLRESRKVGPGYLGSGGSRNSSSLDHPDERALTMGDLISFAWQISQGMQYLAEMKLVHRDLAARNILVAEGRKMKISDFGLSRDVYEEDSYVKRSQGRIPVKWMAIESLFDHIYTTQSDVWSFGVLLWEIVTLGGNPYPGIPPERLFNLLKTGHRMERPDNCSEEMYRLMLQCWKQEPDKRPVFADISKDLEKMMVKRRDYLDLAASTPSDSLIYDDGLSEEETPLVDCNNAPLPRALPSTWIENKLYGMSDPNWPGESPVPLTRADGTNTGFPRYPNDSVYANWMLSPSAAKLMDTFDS", "assay": "Kinase panel (TABLE F), Ret Kinase", "format": "biochemical"}, "Lung_H292": {"system": "Lung_H292", "assay": "Cell proliferation assay (ATPlite), H292", "format": "cell-based", "conditions": "Homo sapiens, NCI-H292; TABLE C; 72 hours, 0.5% fetal bovine serum, ATP content; read-out: IC50 grading, Lung_H292", "protocol": "as §1, §2, §3"}, "Lung_H1703": {"system": "Lung_H1703", "assay": "Cell proliferation assay (ATPlite), H1703", "format": "cell-based", "conditions": "Homo sapiens, NCI-H1703; TABLE C; 72 hours, 0.5% fetal bovine serum, ATP content; read-out: IC50 grading, Lung_H1703", "protocol": "as §1, §2, §3"}}, "note": "Where two headings read alike, the source gives them in different places."}
{"smiles": "C#Cc1cccc(Nc2ncnc3cc(OC)c(OCCCCCCC(=O)NO)cc23)c1", "note": "[Compound 12]", "values": [{"measurement": "IC50", "setting": "Lung_H358", "result": "100 to 1000", "unit": "nM"}, {"measurement": "inhibition at 5 µM", "setting": "FLT-3 Kinase", "result": 85, "unit": "%"}, {"measurement": "IC50", "setting": "Pancreas_BxPC3", "result": "< 100", "unit": "nM"}, {"measurement": "dose without significant change in body weight", "setting": "[1]", "result": "up to 200 mg/kg"}, {"measurement": "IC50", "setting": "Pancreas_HPAC", "result": "1000 to 10000", "unit": "nM"}, {"measurement": "inhibition at 5 µM", "setting": "VEGFR2 Kinase", "result": 64, "unit": "%"}, {"measurement": "dose without significant change in body weight", "setting": "[2]", "result": "up to 100 mg/kg"}, {"measurement": "IC50", "setting": "Pancreas_CFPAC", "result": "100 to 1000", "unit": "nM"}, {"measurement": "IC50", "setting": "Pancreas_Capan1", "result": "100 to 1000", "unit": "nM"}, {"measurement": "IC50", "setting": "[3]", "result": "< 100", "unit": "nM"}, {"measurement": "IC50", "setting": "[4]; TABLE C, 72 hours, 0.5% fetal bovine serum, ATP content, read-out: IC50 grading, Epidermoid_A431", "result": "100 to 1000", "unit": "nM"}, {"measurement": "IC50", "setting": "[4]; TABLE D, Epidermoid carcinoma, read-out: IC50 grading, A431", "result": "50 to 500", "unit": "nM"}, {"measurement": "IC50", "setting": "Lung_H1975", "result": "100 to 1000", "unit": "nM"}, {"measurement": "inhibition at 5 µM", "setting": "Lck Kinase", "result": 56, "unit": "%"}, {"measurement": "IC50", "setting": "Lung_H2122", "result": "100 to 1000", "unit": "nM"}, {"measurement": "inhibition at 5 µM", "setting": "Abl Kinase", "result": 57, "unit": "%"}, {"measurement": "IC50", "setting": "Pancreas_MiaPaCa2", "result": "100 to 1000", "unit": "nM"}, {"measurement": "AUC", "setting": "in vivo; 20 mg/kg", "result": 3750, "unit": "ng·h/mL"}, {"measurement": "AUC", "setting": "in vivo; 60 mg/kg", "result": 5720, "unit": "ng·h/mL"}, {"measurement": "Cmax", "setting": "in vivo; 60 mg/kg, Cmax (uM)", "result": 14.4, "unit": "µM"}, {"measurement": "IC50", "setting": "[5]; TABLE C, 72 hours, 0.5% fetal bovine serum, ATP content, read-out: IC50 grading, Breast_SkBr3", "result": "100 to 1000", "unit": "nM"}, {"measurement": "IC50", "setting": "[5]; TABLE D, Breast carcinoma, read-out: IC50 grading, SKBr3", "result": "50 to 500", "unit": "nM"}, {"measurement": "IC50", "setting": "Pancreas_PANC1", "result": "100 to 1000", "unit": "nM"}, {"measurement": "inhibition at 5 µM", "setting": "Ret Kinase", "result": 93, "unit": "%"}, {"measurement": "IC50", "setting": "Lung_H292", "result": "< 100", "unit": "nM"}, {"measurement": "IC50", "setting": "Lung_H1703", "result": "100 to 1000", "unit": "nM"}]}
